As a reminder, the inhibition is the share of the control response that was lost under treatment. What is called bioavailability is the share of a dose that reaches the circulation, judged against a reference dose that is usually intravenous. What is called Cmax is the maximum level reached in the sampled fluid or tissue. By clearance is commonly meant the rate of elimination divided by the concentration. Broadly, the Ki is a measure of affinity in units of concentration, obtained from inhibition or displacement.

Data set [1] deals with T1, Endothelin-1 receptor (Rattus norvegicus) (UniProt P26684).
T1 sequence (whole entry): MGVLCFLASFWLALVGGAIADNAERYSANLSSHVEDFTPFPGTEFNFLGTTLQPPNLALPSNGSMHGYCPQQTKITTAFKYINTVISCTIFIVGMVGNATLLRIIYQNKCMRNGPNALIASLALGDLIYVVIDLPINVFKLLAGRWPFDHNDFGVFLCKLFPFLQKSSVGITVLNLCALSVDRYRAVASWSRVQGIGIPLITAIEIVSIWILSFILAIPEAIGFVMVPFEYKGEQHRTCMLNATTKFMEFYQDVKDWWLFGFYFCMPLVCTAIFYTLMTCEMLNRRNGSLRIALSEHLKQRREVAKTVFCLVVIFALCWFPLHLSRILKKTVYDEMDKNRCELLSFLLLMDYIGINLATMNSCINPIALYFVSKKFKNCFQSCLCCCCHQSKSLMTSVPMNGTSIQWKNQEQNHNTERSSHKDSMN
Briefly: Antagonist activity at ETA receptor in rat MMQ cells assessed as inhibition of phosphatidylinositol hydrolysis in presence of myo-[3H] inositol by anion exchange chromatography. Format: functional, cell-based.

Data set [2] has as its target Vasopressin V2 receptor (Homo sapiens) (UniProt P30518). Kind of data set: Displacement of [3H]AVP from human recombinant Vasopressin V2 receptor at 10 uM incubated for 120 mins by radiometric based scintillation counter assay relative to control. In general terms: Displacement assays read how much labelled ligand stays bound in the presence of the test substance.
Data set [3] can be described thus: Oral bioavailability in cynomolgus monkey at 5 mg/kg administered for 12 hrs by HPLC analysis. The data set is classed as ADME, organism-based, Macaca fascicularis. The settings on record: in vivo.
The nature of data set [4]: Cmax in Beagle dog at 5 mg/kg, po administered for 12 hrs by HPLC analysis. The data set is classed as ADME, organism-based, Canis lupus familiaris. Conditions: in vivo.
The species named for data set [5] is Homo sapiens. Briefly: Displacement of [3H]Dofetilide from human recombinant voltage-dependent K+ channel at 10 uM incubated for 60 mins by radiometric based scintillation counter assay relative to control.
Data set [6] concerns the target 5-hydroxytryptamine receptor 1B (Homo sapiens) (UniProt P28222). Kind of data set: Displacement of [3H]GR125743 from human recombinant 5-Hydroxytryptamine 1B at 10 uM incubated for 60 mins by radiometric based scintillation counter assay relative to control.
The target of data set [7] is Muscarinic acetylcholine receptor M3 (Homo sapiens) (UniProt P20309). Briefly: Displacement of [3H]4-DAMP from human recombinant muscarinic M3 receptor at 10 uM incubated for 60 mins by radiometric based scintillation counter assay relative to control.
Chain of Muscarinic acetylcholine receptor M3 (Homo sapiens) (P20309 whole entry, looked up): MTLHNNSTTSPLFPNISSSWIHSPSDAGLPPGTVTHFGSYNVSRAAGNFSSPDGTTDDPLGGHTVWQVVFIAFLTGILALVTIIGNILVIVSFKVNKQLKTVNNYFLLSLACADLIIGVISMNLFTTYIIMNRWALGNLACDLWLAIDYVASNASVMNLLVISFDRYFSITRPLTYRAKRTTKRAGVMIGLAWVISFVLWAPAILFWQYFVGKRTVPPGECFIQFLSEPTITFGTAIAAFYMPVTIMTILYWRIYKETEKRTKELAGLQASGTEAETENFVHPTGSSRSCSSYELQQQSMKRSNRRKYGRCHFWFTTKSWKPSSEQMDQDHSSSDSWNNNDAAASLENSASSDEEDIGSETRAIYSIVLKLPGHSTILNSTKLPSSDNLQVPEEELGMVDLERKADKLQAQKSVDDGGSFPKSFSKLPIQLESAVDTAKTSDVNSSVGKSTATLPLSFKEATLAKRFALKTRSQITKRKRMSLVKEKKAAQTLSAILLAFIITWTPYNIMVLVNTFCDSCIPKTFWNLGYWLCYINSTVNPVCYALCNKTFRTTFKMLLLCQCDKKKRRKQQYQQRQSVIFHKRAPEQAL
Data set [8] has as its target Sigma non-opioid intracellular receptor 1 (Homo sapiens) (UniProt Q99720). Briefly: Displacement of [3H]DTG from human sigma-Receptor at 10 uM incubated for 120 mins by radiometric based scintillation counter assay relative to control.
For data set [9], the species on record is Homo sapiens. Kind of data set: Displacement of [125I]hCGRPalpha from calcitonin gene-related peptide (unknown origin) at 10 uM incubated for 90 mins by radiometric based scintillation counter assay relative to control.
A short description of data set [10]: Plasma clearance in Sprague-Dawley rat at 5 mg/kg, iv administered for 12 hrs by reverse phase HPLC-UV analysis. The data set is classed as ADME, organism-based.
The test system of data set [11] is P2Y purinergic receptor (Rattus norvegicus). Kind of data set: Displacement of [35S]dATPalpha S from rat brain P2Y-purinergic receptor at 10 uM incubated for 60 mins by radiometric based scintillation counter assay relative to control.
The target in data set [12] is Mu-type opioid receptor (Homo sapiens) (UniProt P35372). Briefly: Displacement of [3H]DAMGO from human recombinant mu-Opioid receptor at 10 uM incubated for 120 mins by radiometric based scintillation counter assay relative to control.
Chain of Mu-type opioid receptor (Homo sapiens) (P35372 whole entry): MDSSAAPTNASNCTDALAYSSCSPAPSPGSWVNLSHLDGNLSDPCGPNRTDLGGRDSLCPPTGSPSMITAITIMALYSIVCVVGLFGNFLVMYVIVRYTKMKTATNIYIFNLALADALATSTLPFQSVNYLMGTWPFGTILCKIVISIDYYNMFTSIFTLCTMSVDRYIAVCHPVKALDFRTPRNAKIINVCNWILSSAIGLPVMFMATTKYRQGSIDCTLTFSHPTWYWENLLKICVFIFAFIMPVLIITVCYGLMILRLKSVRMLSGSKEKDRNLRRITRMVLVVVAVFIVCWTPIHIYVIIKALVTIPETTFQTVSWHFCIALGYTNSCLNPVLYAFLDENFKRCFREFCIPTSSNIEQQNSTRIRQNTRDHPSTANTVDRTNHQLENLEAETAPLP
The target of data set [13] is Neuromedin-K receptor (Homo sapiens) (UniProt P29371). Kind of data set: Displacement of [3H]SR 142801 from human recombinant NK3 tachykinin receptor at 10 uM incubated for 120 mins by radiometric based scintillation counter assay relative to control.
Chain of Neuromedin-K receptor (Homo sapiens) (P29371 whole entry): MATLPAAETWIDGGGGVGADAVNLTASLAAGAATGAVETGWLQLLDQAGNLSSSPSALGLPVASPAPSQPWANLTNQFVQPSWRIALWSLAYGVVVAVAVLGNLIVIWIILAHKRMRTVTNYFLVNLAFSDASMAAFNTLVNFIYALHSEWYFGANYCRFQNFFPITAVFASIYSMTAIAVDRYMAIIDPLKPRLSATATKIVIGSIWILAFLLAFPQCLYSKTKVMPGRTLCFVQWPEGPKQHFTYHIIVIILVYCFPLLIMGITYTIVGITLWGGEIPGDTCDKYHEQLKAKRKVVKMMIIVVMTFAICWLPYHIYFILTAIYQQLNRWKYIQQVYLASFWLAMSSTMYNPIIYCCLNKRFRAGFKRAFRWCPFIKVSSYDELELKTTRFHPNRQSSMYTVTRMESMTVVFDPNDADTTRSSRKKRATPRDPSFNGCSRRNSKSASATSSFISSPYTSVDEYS
Data set [14] has as its target T1, Endothelin-1 receptor (Rattus norvegicus). Kind of data set: In vivo antagonist activity to ETA receptor in endothelin-1 induced Sprague-Dawley rat assessed as reduction of vasopressor response at 30 mg/kg, po administered for 24 hrs. The data set is classed as functional, organism-based.
Data set [15] has as its target Vasopressin V1a receptor (Homo sapiens) (UniProt P37288). Briefly: Displacement of [3H]AVP from human recombinant Vasopressin V1a receptor at 10 uM incubated for 60 mins by radiometric based scintillation counter assay relative to control.
Data set [16] addresses 5-hydroxytryptamine receptor 1A (Homo sapiens) (UniProt P08908). Kind of data set: Displacement of [3H]8-OH-DPAT from human recombinant 5-Hydroxytryptamine 1A at 10 uM incubated for 60 mins by radiometric based scintillation counter assay relative to control.
Data set [17] concerns the target Muscarinic acetylcholine receptor M1 (Homo sapiens) (UniProt P11229). Kind of data set: Displacement of [3H]pirenzepine from human recombinant muscarinic M1 receptor at 10 uM incubated for 60 mins by radiometric based scintillation counter assay relative to control.
Data set [18] deals with T2, Endothelin receptor type B (Homo sapiens, UniProt P24530).
T2 sequence (P24530 whole entry): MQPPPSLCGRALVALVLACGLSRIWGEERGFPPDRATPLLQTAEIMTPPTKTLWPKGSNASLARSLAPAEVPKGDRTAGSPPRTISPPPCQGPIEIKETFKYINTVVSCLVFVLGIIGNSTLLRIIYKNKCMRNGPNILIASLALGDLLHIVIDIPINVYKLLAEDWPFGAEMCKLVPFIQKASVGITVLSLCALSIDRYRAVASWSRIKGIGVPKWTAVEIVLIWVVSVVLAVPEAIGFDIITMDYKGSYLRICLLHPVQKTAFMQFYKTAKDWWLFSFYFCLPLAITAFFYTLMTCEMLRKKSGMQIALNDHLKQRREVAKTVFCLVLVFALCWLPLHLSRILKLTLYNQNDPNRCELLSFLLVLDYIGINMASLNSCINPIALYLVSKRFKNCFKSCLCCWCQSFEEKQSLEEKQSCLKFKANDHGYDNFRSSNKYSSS
Kind of data set: Displacement of [125I]endhothelin-3 from human ETB receptor stably expressed in CHO cells Membrane assessed as inhibition constant at 25 degC incubated for 4 hrs by saturation binding assay. Format: cell membranes.

The species entered for data set [19] is Homo sapiens. Kind of data set: Inhibition of Ca2+ dependent potassium channel (unknown origin) at 10 uM by radioligand binding assay relative to control.
The target in data set [20] is Muscarinic acetylcholine receptor M4 (Homo sapiens) (UniProt P08173). Briefly: Displacement of [3H]4-DAMP from human recombinant muscarinic M4 receptor at 10 uM incubated for 60 mins by radiometric based scintillation counter assay relative to control.
Chain of Muscarinic acetylcholine receptor M4 (Homo sapiens) (P08173 whole entry): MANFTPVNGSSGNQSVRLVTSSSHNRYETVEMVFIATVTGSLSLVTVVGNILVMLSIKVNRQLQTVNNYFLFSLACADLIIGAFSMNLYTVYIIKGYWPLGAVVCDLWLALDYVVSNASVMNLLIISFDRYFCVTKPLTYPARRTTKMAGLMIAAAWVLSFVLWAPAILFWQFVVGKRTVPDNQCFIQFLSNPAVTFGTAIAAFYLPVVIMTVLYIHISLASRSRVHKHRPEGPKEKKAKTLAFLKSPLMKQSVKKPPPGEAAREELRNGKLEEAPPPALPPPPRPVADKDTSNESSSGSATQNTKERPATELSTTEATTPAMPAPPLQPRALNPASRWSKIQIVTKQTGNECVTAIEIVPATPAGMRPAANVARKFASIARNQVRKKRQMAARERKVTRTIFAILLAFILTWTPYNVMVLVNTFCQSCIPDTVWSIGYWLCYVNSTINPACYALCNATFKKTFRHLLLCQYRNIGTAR
For data set [21], the target named is Gastrin/cholecystokinin type B receptor (Homo sapiens) (UniProt P32239). Kind of data set: Displacement of [125I]CCK-8s from human recombinant cholecystokinin B receptor at 10 uM incubated for 60 mins by radiometric based scintillation counter assay relative to control.
Chain of Gastrin/cholecystokinin type B receptor (Homo sapiens) (P32239 whole entry): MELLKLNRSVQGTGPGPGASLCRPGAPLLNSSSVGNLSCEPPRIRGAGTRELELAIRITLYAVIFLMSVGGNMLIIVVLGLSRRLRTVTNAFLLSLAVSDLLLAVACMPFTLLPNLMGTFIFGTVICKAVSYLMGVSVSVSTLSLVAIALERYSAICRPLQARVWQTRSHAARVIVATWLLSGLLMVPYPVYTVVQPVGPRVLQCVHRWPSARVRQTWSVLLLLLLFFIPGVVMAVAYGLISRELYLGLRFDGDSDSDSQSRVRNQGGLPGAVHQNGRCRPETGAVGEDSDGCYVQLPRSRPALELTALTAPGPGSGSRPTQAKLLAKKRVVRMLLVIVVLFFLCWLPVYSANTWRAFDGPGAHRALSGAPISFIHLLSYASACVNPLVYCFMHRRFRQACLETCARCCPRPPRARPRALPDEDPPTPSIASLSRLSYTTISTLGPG
Data set [22] is filed under the species Homo sapiens. Kind of data set: Inhibition of Thromboxane A2 receptor/prostaglandin H2 receptor (unknown origin) at 10 uM by radioligand binding assay relative to control.
Data set [23] has as its target Cannabinoid receptor 2 (Homo sapiens) (UniProt P34972). Briefly: Displacement of [3H]WIN 55212-2 from human recombinant cannabinoid CB2 receptor at 10 uM incubated for 120 mins by radiometric based scintillation counter assay relative to control.
Data set [24] deals with Neuropeptide Y receptor type 1 (Homo sapiens) (UniProt P25929). Briefly: Displacement of [125I]peptide YY from human recombinant Y1 receptor at 10 uM incubated for 120 mins by radiometric based scintillation counter assay relative to control.
Chain of Neuropeptide Y receptor type 1 (Homo sapiens) (P25929 whole entry): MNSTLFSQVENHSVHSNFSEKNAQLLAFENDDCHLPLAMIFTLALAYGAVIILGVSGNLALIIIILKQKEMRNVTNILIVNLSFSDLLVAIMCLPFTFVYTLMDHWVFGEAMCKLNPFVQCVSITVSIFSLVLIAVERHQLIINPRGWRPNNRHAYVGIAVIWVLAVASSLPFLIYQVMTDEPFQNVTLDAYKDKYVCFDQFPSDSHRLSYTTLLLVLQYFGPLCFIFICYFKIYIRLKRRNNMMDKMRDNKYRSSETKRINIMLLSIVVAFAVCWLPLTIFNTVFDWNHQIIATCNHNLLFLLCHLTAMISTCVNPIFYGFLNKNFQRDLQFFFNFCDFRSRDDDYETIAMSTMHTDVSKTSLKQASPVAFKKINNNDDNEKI

The structures appear in SMILES notation. Activity calls are given as the source filed them. The calls are words filed in the database; no cut-off is given here.

Chain of Sigma non-opioid intracellular receptor 1 (Homo sapiens) (Q99720 whole entry): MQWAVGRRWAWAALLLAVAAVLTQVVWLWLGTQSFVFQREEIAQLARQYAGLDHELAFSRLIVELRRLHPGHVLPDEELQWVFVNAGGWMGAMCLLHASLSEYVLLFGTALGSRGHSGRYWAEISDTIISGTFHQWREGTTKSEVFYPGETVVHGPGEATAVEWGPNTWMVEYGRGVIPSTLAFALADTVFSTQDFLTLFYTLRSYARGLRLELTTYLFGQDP
Chain of Muscarinic acetylcholine receptor M1 (Homo sapiens) (P11229 whole entry): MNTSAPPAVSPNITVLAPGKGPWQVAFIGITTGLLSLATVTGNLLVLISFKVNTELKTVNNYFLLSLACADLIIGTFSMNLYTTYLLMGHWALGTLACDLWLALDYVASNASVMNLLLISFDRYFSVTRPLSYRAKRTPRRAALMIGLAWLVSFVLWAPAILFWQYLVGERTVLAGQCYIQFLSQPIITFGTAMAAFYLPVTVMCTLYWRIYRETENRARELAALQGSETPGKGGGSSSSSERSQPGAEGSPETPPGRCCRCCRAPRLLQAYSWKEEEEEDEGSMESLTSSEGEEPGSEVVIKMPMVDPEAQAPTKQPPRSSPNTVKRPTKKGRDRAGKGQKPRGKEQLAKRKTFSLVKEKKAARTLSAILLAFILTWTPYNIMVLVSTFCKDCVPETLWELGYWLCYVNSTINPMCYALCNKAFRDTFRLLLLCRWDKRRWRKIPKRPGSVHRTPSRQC
Chain of Vasopressin V1a receptor (Homo sapiens) (P37288 whole entry, looked up): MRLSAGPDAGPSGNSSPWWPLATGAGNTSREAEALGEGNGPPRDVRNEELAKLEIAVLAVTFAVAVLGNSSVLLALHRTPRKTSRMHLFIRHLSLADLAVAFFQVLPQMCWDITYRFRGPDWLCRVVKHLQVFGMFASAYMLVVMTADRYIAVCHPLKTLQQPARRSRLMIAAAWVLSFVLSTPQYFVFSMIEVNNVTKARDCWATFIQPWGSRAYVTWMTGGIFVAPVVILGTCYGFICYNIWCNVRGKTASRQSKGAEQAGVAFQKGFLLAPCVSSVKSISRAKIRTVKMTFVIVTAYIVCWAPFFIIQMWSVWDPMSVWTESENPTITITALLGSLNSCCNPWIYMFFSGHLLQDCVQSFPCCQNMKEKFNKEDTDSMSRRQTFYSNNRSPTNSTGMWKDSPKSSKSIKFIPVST
Chain of Cannabinoid receptor 2 (Homo sapiens) (P34972 whole entry): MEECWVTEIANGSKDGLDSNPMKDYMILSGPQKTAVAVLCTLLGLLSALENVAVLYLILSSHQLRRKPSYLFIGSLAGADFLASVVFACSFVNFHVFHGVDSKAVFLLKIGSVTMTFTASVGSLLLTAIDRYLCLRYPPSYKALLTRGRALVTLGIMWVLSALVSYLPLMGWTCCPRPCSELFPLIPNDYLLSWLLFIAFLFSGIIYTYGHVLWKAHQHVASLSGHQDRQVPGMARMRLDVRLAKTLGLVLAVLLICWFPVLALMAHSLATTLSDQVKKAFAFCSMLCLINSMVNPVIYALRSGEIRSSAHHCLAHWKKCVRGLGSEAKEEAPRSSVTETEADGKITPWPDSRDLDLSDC
Chain of Vasopressin V2 receptor (Homo sapiens) (P30518 whole entry): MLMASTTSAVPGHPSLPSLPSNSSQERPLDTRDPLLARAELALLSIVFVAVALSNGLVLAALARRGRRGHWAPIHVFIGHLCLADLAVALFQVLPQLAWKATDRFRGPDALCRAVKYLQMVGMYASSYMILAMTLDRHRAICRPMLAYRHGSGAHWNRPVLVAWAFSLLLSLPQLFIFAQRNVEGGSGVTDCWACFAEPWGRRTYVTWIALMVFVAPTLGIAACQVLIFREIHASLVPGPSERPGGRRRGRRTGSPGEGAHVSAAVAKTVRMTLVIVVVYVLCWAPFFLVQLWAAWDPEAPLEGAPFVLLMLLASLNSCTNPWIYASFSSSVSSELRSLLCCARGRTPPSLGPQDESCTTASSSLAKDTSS

Consider `CCCCN(CCCC)C(=O)CN1[C@H](c2cc(OC)c3c(c2)OCO3)C[C@@H](C(=O)O)[C@@H]1CC(C)(C)CCC`, for which the result in data set [1] and in data set [14] was inactive. Further, the inhibition (in data set [2]; in the data set listed under Homo sapiens [5]; in data set [6]; in data set [7]; in data set [8]; in the data set listed under Homo sapiens [9]) was less than 10% throughout. The inhibition in [11] is less than 10%; in data set [12], 17%; in data set [13], less than 10%; in data set [15], less than 10%; in data set [16], less than 10%; in [17], less than 10%. Moreover, the inhibition in the data set listed under Homo sapiens [19] is less than 10%; in data set [20] it was less than 10%; in [21], less than 10%; in the data set listed under Homo sapiens [22] it was 16%; in data set [23], 11%; in data set [24] it was less than 10%. Besides, the bioavailability in [3] is 18.1%. This molecule showed a Cmax in data set [4] of 1970 ng/mL. In addition, the clearance in [10] is 25 mL/min/kg. Also, in [18], the Ki is 13 µM.

The values above are taken from ChEMBL document CHEMBL5678795 (Eur J Pharmacol, 1999).
